Test results published in ChEMBL document CHEMBL1132517, “Nitrobenzyl carbamate prodrugs of enediynes for nitroreductase gene-directed enzyme prodrug therapy (GDEPT)” (Bioorg Med Chem Lett, 1999).
pIC50: −log10 of the molar value. Several values for one entry are separate records, joined by “and”; a condition that tells them apart may be missing. Identical values can stand only once.

Columns and labels:
[1] = Oxygen dependence of cytotoxicity was assessed by clonogenic assay using stirred suspension cultures of AA8 cells after 1 hr under anoxic conditions; format: functional, Cricetulus griseus, CHO-AA8
[2] = Oxygen dependence of cytotoxicity was assessed by clonogenic assay using stirred suspension cultures of AA8 cells after 4 hr under anoxic conditions; format: functional, Cricetulus griseus, CHO-AA8
[3] = Oxygen dependence of cytotoxicity was assessed by clonogenic assay using stirred suspension cultures of AA8 cells after 1 hr under aerobic conditions; format: functional, Cricetulus griseus, CHO-AA8
[4] = Oxygen dependence of cytotoxicity was assessed by clonogenic assay using stirred suspension cultures of AA8 cells after 4 hr under aerobic conditions; format: functional, Cricetulus griseus, CHO-AA8
[5] = test system: SK-OV-3; experiment: In vitro cytotoxicity against SKOV-3 cells in the absence of co-factor; format: functional, cell-based; settings: Homo sapiens
[6] = test system: SK-OV-3; experiment: In vitro cytotoxicity against SKOV-3 cells in the presence of 1 mM NADH co-factor; format: functional, cell-based; settings: Homo sapiens
[7] = test system: SK-OV-3; experiment: In vitro cytotoxicity against SKOV-3 cells in the presence of 1 mM NADH co-factor and 1 ug/mL Escherichia coli B nitroreductase (NTR); format: functional, cell-based; settings: Homo sapiens
[8] = test system: WiDr; experiment: (§1) Ratio of cytotoxicities against WiDr cell line to NTR transfectant; format: functional, Homo sapiens
[9] = Oxygen dependence of cytotoxicity was assessed by clonogenic assay using stirred suspension cultures of ERCC-1 mutant UV4 cells after 1 hr under anoxic conditions; format: functional, Cricetulus griseus
[10] = Oxygen dependence of cytotoxicity was assessed by clonogenic assay using stirred suspension cultures of ERCC-1 mutant UV4 cells after 4 hr under anoxic conditions; format: functional, Cricetulus griseus
[11] = Oxygen dependence of cytotoxicity was assessed by clonogenic assay using stirred suspension cultures of ERCC-1 mutant UV4 cells after 1 hr under aerobic conditions; format: functional, Cricetulus griseus
[12] = test system: WiDr; experiment: In vitro cytotoxicity against man colon carcinoma line WiDr cell lines transfected with Escherichia coli B nitroreductase (NTR); format: functional, cell-based; settings: Homo sapiens
[13] = Oxygen dependence of cytotoxicity was assessed by clonogenic assay using stirred suspension cultures of ERCC-1 mutant UV4 cells after 4 hr under aerobic conditions; format: functional, Cricetulus griseus
[14] = Ratio of oxygen dependence of cytotoxicities of UV4 cells in aerobic condition to anoxic condition; format: functional
[15] = Ratio of cytotoxicities against SKOV-3 cell line to NTR transfectant; format: functional, SK-OV-3
[16] = Ratio of cytotoxicities against T78-1 cell line to NTR transfectant; format: functional
[17] = Ratio of cytotoxicity against SKOV-3 cells in the absence of co-factor to the cytotoxicity in the presence of co-factor and NTR; format: functional, SK-OV-3
[18] = test system: T78-1; experiment: In vitro cytotoxicity against Chinese hamster V79-derived cell line T78-1 transfected with Escherichia coli B nitroreductase (NTR); format: functional, cell-based; settings: Cricetulus griseus
[19] = Oxygen dependence of cytotoxicity was assessed by clonogenic assay using stirred suspension cultures of AA8 cells after 3h under anoxic conditions; format: functional, Cricetulus griseus, CHO-AA8
[20] = Ratio of oxygen dependence of cytotoxicities of AA8 cells in aerobic condition to anoxic condition; format: functional, Cricetulus griseus, CHO-AA8
[21] = Oxygen dependence of cytotoxicity was assessed by clonogenic assay using stirred suspension cultures of AA8 cells after 3h under aerobic conditions; format: functional, Cricetulus griseus, CHO-AA8
[22] = Oxygen dependence of cytotoxicity was assessed by clonogenic assay using stirred suspension cultures of ERCC-1 mutant UV4 cells after 3h under anoxic conditions; format: functional, Cricetulus griseus
[23] = Oxygen dependence of cytotoxicity was assessed by clonogenic assay using stirred suspension cultures of ERCC-1 mutant UV4 cells after 3h under aerobic conditions; format: functional, Cricetulus griseus
[24] = Oxygen dependence of cytotoxicity was assessed by clonogenic assay using stirred suspension cultures of ERCC-1 mutant UV4 cells after 8 hr under anoxic conditions; format: functional, Cricetulus griseus
[25] = Oxygen dependence of cytotoxicity was assessed by clonogenic assay using stirred suspension cultures of ERCC-1 mutant UV4 cells after 8 hr under aerobic conditions; format: functional, Cricetulus griseus
[26] = as §1; format: functional
[27] = test system: SK-OV-3; experiment: In vitro for cytotoxicity against SKOV-3 cells in the presence of 1 mM NADH co-factor; format: functional, cell-based; settings: Homo sapiens
[28] = test system: SK-OV-3; experiment: In vitro for cytotoxicity against SKOV-3 cells in the presence of 1 mM NADH co-factor and 1 ug/mL Escherichia coli B nitroreductase (NTR); format: functional, cell-based; settings: Homo sapiens

O=C(OCc1ccc([N+](=O)[O-])cc1)N1c2ccc(OCCO)cc2[C@@]23O[C@]24CCC[C@H]3C#C/C=C\C#C[C@H]14
C10 N2 [1]: >100 µM
C10 N2 [2]: >100 µM
C10 air [3]: 75 µM
C10 air [4]: 22 µM
pIC50 [5]: 6.30
pIC50 [6]: 6.30
pIC50 [7]: 7.41
Selectivity [8]: 135
C10 N2 [9]: 60 µM
C10 N2 [10]: 12 µM
C10 air [11]: 40 µM
pIC50 [12]: 5.74
C10 air [13]: 11 µM
C10 air/C10 N2 [14]: 1.5 and 1.1
Selectivity [15]: 21.3
Selectivity [16]: 111
Selectivity [17]: 13
pIC50 [18]: 5.62

O=C(OCc1ccccc1[N+](=O)[O-])N1c2ccccc2[C@@]23O[C@]24CCC[C@H]3C#C/C=C\C#C[C@H]14
C10 N2 [19]: 200 µM
C10 air/C10 N2 [20]: >1.7
C10 air [21]: 120 µM
pIC50 [5]: < 4.70
pIC50 [6]: < 4.70
pIC50 [7]: < 4.70
C10 N2 [22]: 53 µM
pIC50 [12]: < 4.70
C10 air [23]: 140 µM
C10 air/C10 N2 [14]: 0.4
Selectivity [16]: 1.9
pIC50 [18]: 5.05

O=C(OCc1ccc([N+](=O)[O-])cc1)N1c2ccccc2[C@@]23O[C@]24CCC[C@H]3C#C/C=C\C#C[C@H]14
C10 N2 [19]: >100 µM
C10 air [21]: >100 µM
pIC50 [5]: 4.69
pIC50 [6]: < 4.70
pIC50 [7]: 6.59
C10 N2 [22]: >100 µM
C10 N2 [24]: 70 µM
pIC50 [12]: 5.08
C10 air [23]: >100 µM
C10 air [25]: 70 µM
ratio [14]: 1
Selectivity [15]: 264
Selectivity [16]: 54
Selectivity [26]: 97
Selectivity [17]: 95.9
pIC50 [18]: 4.95

NC(=O)c1cc(N2CC2)c([N+](=O)[O-])cc1[N+](=O)[O-] [TRETAZICAR]
pIC50 [27]: 6.12
pIC50 [28]: 6.00
pIC50 [12]: 3.25
Selectivity [15]: 357
Selectivity [16]: 1630
Selectivity [26]: 51
Selectivity [17]: 183
